Data taken from ChEMBL document CHEMBL1158951, “Additional bioactive heptenes from Melodorum fruticosum” (1991).
≈ marks a conversion by molar mass, not a printed value.

Key:
Type in all cases: functional
Settings in all cases: read-out: ED50 (the source's name)
MCF7 = test: Cytotoxicity against human MCF7 cells
HT-29 = test: Cytotoxicity against human HT-29 cells
SK-MEL-5 = test: Cytotoxicity against human SK-MEL-5 cells
A549 = test: Cytotoxicity against human A549 cells
Malme-3M = test: Cytotoxicity against human MALME-3M cells

SMILES | EC50 (MCF7) | EC50 (HT-29) | EC50 (SK-MEL-5) | EC50 (A549) | EC50 (Malme-3M)
CC(=O)OC(/C=C1/C=CC(=O)O1)COC(=O)c1ccccc1 (stereo unspecified) [ACETYLMELODORINOL] | 1.96 µg/mL (≈ 6.48 µM) | 2.38 µg/mL (≈ 7.87 µM) | 4.21 µg/mL (≈ 13.9 µM) | 2.89 µg/mL (≈ 9.56 µM) | 2.74 µg/mL (≈ 9.06 µM)
O=C1C=C/C(=C/C(O)COC(=O)c2ccccc2)O1 (stereo unspecified) [MELODORINOL] | 1.99 µg/mL (≈ 7.65 µM) | 2.87 µg/mL (≈ 11 µM) | 3.75 µg/mL (≈ 14.4 µM) | 5.89 µg/mL (≈ 22.6 µM) | 3.32 µg/mL (≈ 12.8 µM)
CCOC(=O)/C=C\C(=O)/C=C/COC(=O)c1ccccc1 [HOMOISOMELODIENONE] | 4.26 µg/mL (≈ 14.8 µM) | 36.3 µg/mL (≈ 126 µM) |  | 6.7 µg/mL (≈ 23.2 µM) | 
CCOC(=O)/C=C/C(=O)/C=C/COC(=O)c1ccccc1 [HOMOMELODIENONE] | 25.6 µg/mL (≈ 88.8 µM) | 37.9 µg/mL (≈ 131 µM) |  | 36.9 µg/mL (≈ 128 µM) | 
COC(=O)/C=C/C(=O)CC(O)COC(=O)c1ccccc1 (stereo unspecified) | 1.92 µg/mL (≈ 6.57 µM) | 0.253 µg/mL (≈ 0.866 µM) | 1.04 µg/mL (≈ 3.56 µM) | 3.28 µg/mL (≈ 11.2 µM) | 1.1 µg/mL (≈ 3.76 µM)
